Reference: article PMC2762027, “Potencies of Cocaine Methiodide on Major Cocaine Targets in Mice” (PLoS ONE, 2009)
Entries after “also recorded” stand apart in the source; their conditions may differ. Read-outs that look alike come from different tables or passages of the source.

Key:
[1] = tested on: DRG neuron Na+ channels; experiment: Whole-cell voltage clamp recording of sodium channel currents in dorsal root ganglion neurons; assay type: cell-based, mouse; conditions: for IC50: isolated mouse DRG neurons, whole-cell patch clamp, held at -70 mV, read-out: IC50, inhibition of DRG neuron Na+ channels
Method: Dorsal root ganglion (DRG) neurons (T1–T10) from adult male C57B6 mice (aged 6–8 weeks) were isolated as per Malin et al. Briefly, ganglia were dissected under stereo microscope and washed in Ca^2+/Mg^2+-free Hank's Buffered Salt Solution (HBSS). DRGs were digested enzymatically, first with papain and then collagenase II and dispase II, each for 10 min at 37°C. Digested DRGs were then triturated in culture media (F-12 supplemented with 10% FBS and 5 mg/ml penicillin/streptomycin) by a fire-polished Pasteur pipette until solution becomes cloudy. Isolated DRG neurons were plated on poly-ornithine coated glass cover slips and maintained in a 37°C, 5% CO2 incubator. Individual DRG neurons were recorded after overnight culture.
Plated coverslips were centered in a perfusion chamber filled with extracellular solution (ECS) containing (in mM): 140 NaCl, 5 KCl, 2 CaCl2, 1 MgCl2, 10 glucose, 10 HEPES, pH 7.4. Cocaine and CM were dissolved in ECS and delivered via a pressure-driven perfusion system (SmartSquirt 8, AutoMate Scientific) with the tip positioned so the DRG neuron being recorded was fully within the direct stream of perfusate. Recording pipettes were pulled from micropipette glass (World Precision Instruments, Sarasota FL) to 2–4 MΩ when filled with an intracellular solution containing (in mM): 140 […], 1 CaCl2, 2 MgCl2, 11 EGTA, 10 HEPES, 2 Mg2ATP, pH 7.2). Whole-cell recordings were made using an EPC10 amplifier and the PatchMaster 2.2.0 software (both from HEKA Electronik, Germany). As soon as the whole-cell configuration was established, fast and slow capacitances were cancelled and the holding potential (Vh) was set to -70 mV. A step protocol ([…] from −70 mV to 10 mV with 5 mV increment for each step) was applied to determine the testing voltage (Vt) that generated the maximal inward current in the following experiment. […] Only one cell per cover slip was recorded to avoid possible drug contamination of other cells. […]
A range of drug concentrations, starting from low to high, were tested for each DRG neuron. The sodium channel currents were recorded 30 s before the drug application, during the 30 s drug application, and 30–60 s after drug washout by perfusion with ECS. For each set of tests, current amplitude was measured by subtracting the baseline value from the peak current. […] The currents measured after the drug washout were used to confirm the complete recovery before testing the next drug concentration.
The IC50 values were determined by nonlinear regression analyses of experimental data using GraphPad Prism 3.0 (San Diego, CA). IC50 values presented are averages ± standard error of means (SEM) calculated from 3 independent uptake experiments or recordings of 4 different DRG neurons. […]

[2] = tested on: sodium channels; design: method as in PMID 16406254; conditions: cited from earlier work
[3] = molecular target: mouse SERT (Mus musculus, UniProt Q60857); experiment: Serotonin uptake into HeLa cells transiently transfected with mSERT; assay type: cell-based
[4] = molecular target: mouse DAT (Mus musculus, UniProt Q61327); experiment: Dopamine uptake into HeLa cells transiently transfected with mDAT; assay type: cell-based
[5] = molecular target: T1, dopamine uptake by striatal synaptosomes (Mus musculus, UniProt Q61327); experiment: Dopamine reuptake into striatal synaptosomes; assay type: biochemical
T1 construct: C57B6 mice (aged 6–8 weeks) were decapitated and striatum were dissected from both sides of the brain; from tissue; host or cells: striatal synaptosomes of C57B6 mice
Method: All animal work was conducted in adherence to OSU IACUC approved protocols and guidelines for animal welfare. C57B6 mice (aged 6–8 weeks) were decapitated and striatum were dissected from both sides of the brain and stored on ice. The tissues were placed in ice-cold Krebs'-Ringer's solution buffer (KRB) (in mM: 125 NaCl, 1.2 KCl, 1.2 MgSO4, 1.2 CaCl2, 22 NaHCO3, 1 NaH2PO4, and 10 glucose, adjusted to pH 7.4) with an additional 0.32 M sucrose. Tissue samples were homogenized by using a glass homogenizing tube and with a Teflon-coated pestle. The samples were centrifuged for 10 min at 1,000xg. Supernatant was collected and the debris pellet was discarded. Supernatant was centrifuged for 15 min at 16,000x g. […] Amounts of [^3H]-labeled dopamine accumulated were quantitated by liquid-scintillation counting. All experiments were performed in triplicates. Synaptosomes with the highest dose of inhibitor were used as background controls and radioactivity associated with these wells were subtracted from the total scintillation counts of all wells.
The IC50 values were determined by nonlinear regression analyses of experimental data using GraphPad Prism 3.0 (San Diego, CA). IC50 values presented are averages ± standard error of means (SEM) calculated from 3 independent uptake experiments or recordings of 4 different DRG neurons. Statistical analyses for the difference between the IC50 values of the two drugs were performed by Student's paired t-test using SPSS 17.0 (Chicago, IL).

[6] = molecular target: mouse NET (Mus musculus, UniProt O55192); experiment: Norepinephrine uptake into HeLa cells transiently transfected with mNET; assay type: cell-based
Chain of mouse NET (O55192 whole entry): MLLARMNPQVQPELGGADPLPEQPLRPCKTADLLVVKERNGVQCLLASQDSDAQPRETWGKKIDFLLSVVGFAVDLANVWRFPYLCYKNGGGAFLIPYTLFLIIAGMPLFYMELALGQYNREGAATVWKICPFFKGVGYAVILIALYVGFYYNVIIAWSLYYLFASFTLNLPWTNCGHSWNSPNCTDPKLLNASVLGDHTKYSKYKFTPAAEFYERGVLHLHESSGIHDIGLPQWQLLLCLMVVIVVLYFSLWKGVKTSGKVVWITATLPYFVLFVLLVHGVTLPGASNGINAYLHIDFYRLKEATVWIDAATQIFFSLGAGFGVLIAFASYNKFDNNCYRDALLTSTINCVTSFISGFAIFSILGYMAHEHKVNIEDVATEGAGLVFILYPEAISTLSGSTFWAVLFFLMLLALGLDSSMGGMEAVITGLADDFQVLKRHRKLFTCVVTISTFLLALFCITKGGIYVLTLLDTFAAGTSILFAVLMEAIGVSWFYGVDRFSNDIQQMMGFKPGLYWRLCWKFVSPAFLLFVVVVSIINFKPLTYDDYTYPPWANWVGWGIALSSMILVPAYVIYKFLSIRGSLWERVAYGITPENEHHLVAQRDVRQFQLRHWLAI

Chain of mouse SERT (Q60857 whole entry): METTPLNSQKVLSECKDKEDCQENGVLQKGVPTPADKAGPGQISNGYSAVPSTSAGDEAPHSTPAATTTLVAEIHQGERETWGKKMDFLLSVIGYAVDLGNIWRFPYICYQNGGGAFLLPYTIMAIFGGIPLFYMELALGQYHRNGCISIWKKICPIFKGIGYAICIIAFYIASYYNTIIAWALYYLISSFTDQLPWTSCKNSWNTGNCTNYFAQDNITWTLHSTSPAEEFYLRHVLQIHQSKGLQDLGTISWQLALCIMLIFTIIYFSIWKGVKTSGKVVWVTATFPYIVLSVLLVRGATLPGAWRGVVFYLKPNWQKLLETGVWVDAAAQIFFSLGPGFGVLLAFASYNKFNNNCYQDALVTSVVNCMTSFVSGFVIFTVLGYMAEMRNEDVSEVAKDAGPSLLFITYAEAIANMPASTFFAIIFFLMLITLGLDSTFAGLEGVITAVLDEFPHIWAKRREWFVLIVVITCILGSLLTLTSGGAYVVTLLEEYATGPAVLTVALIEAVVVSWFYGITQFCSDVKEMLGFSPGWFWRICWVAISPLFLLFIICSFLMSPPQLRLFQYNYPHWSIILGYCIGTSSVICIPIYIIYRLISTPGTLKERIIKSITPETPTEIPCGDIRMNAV
T1 sequence (Q61327 whole entry): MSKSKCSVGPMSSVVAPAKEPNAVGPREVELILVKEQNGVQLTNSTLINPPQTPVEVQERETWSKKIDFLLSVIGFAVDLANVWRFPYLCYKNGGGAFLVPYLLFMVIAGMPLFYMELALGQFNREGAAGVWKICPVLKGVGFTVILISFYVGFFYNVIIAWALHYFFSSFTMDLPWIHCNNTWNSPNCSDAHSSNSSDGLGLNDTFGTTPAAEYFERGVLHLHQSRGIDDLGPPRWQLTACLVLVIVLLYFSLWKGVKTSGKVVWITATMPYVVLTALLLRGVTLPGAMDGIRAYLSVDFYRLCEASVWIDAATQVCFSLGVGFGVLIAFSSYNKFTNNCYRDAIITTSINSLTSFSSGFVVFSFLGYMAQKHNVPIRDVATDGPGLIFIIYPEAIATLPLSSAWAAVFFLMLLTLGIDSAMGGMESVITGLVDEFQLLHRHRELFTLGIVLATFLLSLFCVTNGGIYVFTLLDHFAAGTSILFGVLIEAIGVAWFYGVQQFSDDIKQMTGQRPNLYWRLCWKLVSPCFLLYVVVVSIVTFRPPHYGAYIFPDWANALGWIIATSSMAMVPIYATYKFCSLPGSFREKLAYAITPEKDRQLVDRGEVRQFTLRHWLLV
Chain of mouse DAT (Q61327 whole entry): as above

| SMILES | sodium channel IC50 relative to those for the monoamine transporters ([1]; cocaine, DRG Na+ channels vs DAT, NET, SERT) | IC50 ([1]; n = 4 cells, listed as cocaine) [µM] | IC50 ([1]; n = 4 cells) [µM] | potency for blocking sodium channels [2] [µM] | IC50 [3] [µM] | IC50 [4] [µM] | IC50 [5] [µM] | IC50 [6] [µM] | effect on sodium channel currents (peak inward current) in DRG neurons ([1]; concentrations up to 3 mM, the highest tested, n = 4 cells, p>0.05, listed as CM) | ratio of IC50 values, cocaine methiodide / cocaine, mSERT ([3]; transfected HeLa cells) [fold] | IC50 ([3]; transfected HeLa cells, 60 nM [3H] substrate, mean ± SEM, 3 experiments, read-out: IC50, inhibition of serotonin uptake by mSERT) [µM] | ratio of IC50 values, cocaine methiodide / cocaine, mDAT ([4]; transfected HeLa cells) [fold] | IC50 ([4]; transfected HeLa cells, 60 nM [3H] substrate, mean ± SEM, 3 experiments, read-out: IC50, inhibition of dopamine uptake by mDAT) [µM] | ratio of IC50 values, cocaine methiodide / cocaine, striatal synaptosomes ([5]; dopamine uptake, mouse striatal synaptosomes) [fold] | IC50 ([5]; mouse striatum synaptosomes, 60 nM [3H]dopamine, 100 µM desipramine, mean ± SEM, 3 experiments, listed as CM, read-out: IC50, inhibition of dopamine uptake by striatal synaptosomes) [µM] | IC50 ([5]; mouse striatum synaptosomes, 60 nM [3H]dopamine, 100 µM desipramine, mean ± SEM, 3 experiments, read-out: IC50, inhibition of dopamine uptake by striatal synaptosomes) [µM] | ratio of IC50 values, cocaine methiodide / cocaine, mNET ([6]; transfected HeLa cells) [fold] | IC50 ([6]; transfected HeLa cells, 60 nM [3H] substrate, mean ± SEM, 3 experiments, read-out: IC50, inhibition of norepinephrine uptake by mNET) [µM] |
| --- | --- | --- | --- | --- | --- | --- | --- | --- | --- | --- | --- | --- | --- | --- | --- | --- | --- | --- |
| COC(=O)[C@H]1[C@@H](OC(=O)c2ccccc2)C[C@@H]2CC[C@H]1N2C [Cocaine] | roughly 100 fold | 85 | 84.8 ± 5.9 | ≥ 50 | 0.68 ± 0.39 | 0.45 ± 0.11 | 0.35 ± 0.11 | 0.67 ± 0.09 |  |  |  |  |  |  |  |  |  |  |
| COC(=O)[C@H]1[C@@H](OC(=O)c2ccccc2)C[C@@H]2CC[C@H]1[N+]2(C)C.[I-] [Cocaine Methiodide, Cocaine methiodide] |  |  |  |  |  |  |  |  | very little inhibition; also recorded: no observable effect; also recorded: little observable effect; also recorded: does not inhibit | 123 | 84.3 ± 4.8 | 184 | 83.2 ± 2.1 | 33 | 11.7 ± 5.1 | 11.5 ± 5.1 | 31 | 20.9 ± 3.1 |
